Test results published in ChEMBL document CHEMBL1151896, “3D QSAR of novel estrogen-RGD peptide conjugates: getting insight into structural dependence of anti-osteoporosis activity and side effect of estrogen in ERT” (Bioorg Med Chem, 2009).
Numbered stars: 1 amine (or outer) side, 2 acyl side, 3 side chain; on linkers, the order of the positions; unused ones are H or OH. Bridge positions count the residues as written; N and C are the ends. Peptide text beside a SMILES is read from it. I, II: the chains in the order shown. Estradiol(3-OCH2CO,17-OSuc) = C[C@]12CC[C@@H]3c4ccc(OCC(=O)[*:1])cc4CC[C@H]3[C@@H]1CC[C@@H]2OC(=O)CCC(=O)[*:2]

Columns and labels:
[1] = test system: Mus musculus; assay: Antiosteoporosis activity against ovariectomized ICR mouse assessed as serum calcium level at 110.3 nmol/kg, po after 30 mins; format: functional
[2] = test system: Mus musculus; assay: Antiosteoporosis activity against ovariectomized ICR mouse assessed as serum phosphorous level at 110.3 nmol/kg, po after 30 mins; format: functional
[3] = test system: Mus musculus; assay: Antiosteoporosis activity against ovariectomized ICR mouse assessed as serum ALP activity at 110.3 nmol/kg, po after 30 mins; format: functional
[4] = test system: Mus musculus; assay: Antiosteoporosis activity against ovariectomized ICR mouse assessed as dry femur weight at 110.3 nmol/kg, po after 30 mins; format: functional
[5] = test system: Mus musculus; assay: Antiosteoporosis activity against ovariectomized ICR mouse assessed as femur ash weight at 110.3 nmol/kg, po after 30 mins; format: functional
[6] = test system: Mus musculus; assay: Antiosteoporosis activity against ovariectomized ICR mouse assessed as femur length at 110.3 nmol/kg, po after 30 mins; format: functional
[7] = test system: Mus musculus; assay: Antiosteoporosis activity against ovariectomized ICR mouse assessed as femur calcium content at 110.3 nmol/kg, po after 30 mins; format: functional
[8] = test system: Mus musculus; assay: Antiosteoporosis activity against ovariectomized ICR mouse assessed as femur phosphorous content at 110.3 nmol/kg, po after 30 mins; format: functional
[9] = test system: Mus musculus; assay: Antiosteoporosis activity against ovariectomized ICR mouse assessed as mineral content at 110.3 nmol/kg, po after 30 mins; format: functional
[10] = test system: Mus musculus; assay: Toxicity in ovariectomized ICR mouse assessed as effect on spleen weight at 110.3 nmol/kg, po after 4 weeks; format: organism-based; details: in vivo, 672 h
[11] = test system: Mus musculus; assay: Toxicity in ovariectomized ICR mouse assessed as effect on lung weight at 110.3 nmol/kg, po after 4 weeks; format: organism-based; details: in vivo, 672 h
[12] = test system: Mus musculus; assay: Toxicity in ovariectomized ICR mouse assessed as effect on kidney weight at 110.3 nmol/kg, po after 4 weeks; format: organism-based; details: in vivo, 672 h
[13] = test system: Mus musculus; assay: Toxicity in ovariectomized ICR mouse assessed as effect on liver weight at 110.3 nmol/kg, po after 4 weeks; format: organism-based; details: in vivo, 672 h
[14] = test system: Mus musculus; assay: Toxicity in ovariectomized ICR mouse assessed as effect on body weight at 110.3 nmol/kg, po after 4 weeks; format: organism-based; details: in vivo, 672 h
[15] = test system: Mus musculus; assay: Toxicity in ovariectomized ICR mouse assessed as tail bleeding time at 110.3 nmol/kg, po for 30 mins; format: organism-based; details: in vivo, 0.5 h
[16] = test system: Mus musculus; assay: Toxicity in ovariectomized ICR mouse assessed as tail bleeding time at 110.3 nmol/kg, po for 90 mins; format: organism-based; details: in vivo, 1.5 h
[17] = test system: Mus musculus; assay: Toxicity in ovariectomized ICR mouse assessed as change in uterine weight at 110.3 nmol/kg, po after 4 weeks; format: organism-based; details: in vivo, 672 h

Row | Compound | Activity [1] [mM] | Activity [2] [mM] | Activity [3] [U/L] | Activity [4] [mg] | Activity [5] [mg] | Activity [6] [cm] | Activity [7] [%] | Activity [8] [%] | Activity [9] [%] | Activity [10] | Activity [11] | Activity [12] | Activity [13] | Activity [14] | Activity [15] [s] | Activity [16] [s] | Activity [17] [g]
1 | CC(C)[C@H](NC(=O)[C@H](CC(=O)O)NC(=O)CNC(=O)[C@H](CCCNC(=N)N)NC(=O)CCC(=O)O[C@H]1CC[C@H]2[C@@H]3CCc4cc(OCC(=O)N[C@@H](CCCNC(=N)N)C(=O)NCC(=O)N[C@@H](CC(=O)O)C(=O)N[C@H](C(=O)O)C(C)C)ccc4[C@H]3CC[C@]12C)C(=O)O (I: RGDV-OH / II: RGDV-OH; linker I:N-II:N via Estradiol(3-OCH2CO,17-OSuc)) | 3.17 | 2.84 | 19.94 | 56.46 | 35.75 | 1.66 | 61.56 | 20.94 | 0.62 | Non-toxic | Non-toxic | Non-toxic | Non-toxic | Non-toxic | 591 | 532 | 0.059
2 | C[C@]12CC[C@@H]3c4ccc(OCC(=O)N[C@@H](CCCNC(=N)N)C(=O)NCC(=O)N[C@@H](CC(=O)O)C(=O)N[C@@H](CO)C(=O)O)cc4CC[C@H]3[C@@H]1CC[C@@H]2OC(=O)CCC(=O)N[C@@H](CCCNC(=N)N)C(=O)NCC(=O)N[C@@H](CC(=O)O)C(=O)N[C@@H](CO)C(=O)O (I: RGDS-OH / II: RGDS-OH; linker I:N-II:N via Estradiol(3-OCH2CO,17-OSuc)) | 3.22 | 2.99 | 19.61 | 55.22 | 35.6 | 1.64 | 61.05 | 20.35 | 0.62 | Non-toxic | Non-toxic | Non-toxic | Non-toxic | Non-toxic | 580 | 570 | 0.05
3 | C[C@]12CC[C@@H]3c4ccc(OCC(=O)N[C@@H](CCCNC(=N)N)C(=O)NCC(=O)N[C@@H](CC(=O)O)C(=O)N[C@@H](Cc5ccccc5)C(=O)O)cc4CC[C@H]3[C@@H]1CC[C@@H]2OC(=O)CCC(=O)N[C@@H](CCCNC(=N)N)C(=O)NCC(=O)N[C@@H](CC(=O)O)C(=O)N[C@@H](Cc1ccccc1)C(=O)O (I: RGDF-OH / II: RGDF-OH; linker I:N-II:N via Estradiol(3-OCH2CO,17-OSuc)) | 3.19 | 3.09 | 15.8 | 55.46 | 35.22 | 1.62 | 61.17 | 21.21 | 0.61 | Non-toxic | Non-toxic | Non-toxic | Non-toxic | Non-toxic | 522 | 524 | 0.05
